What was measured:
Assay type in all cases: in vivo, souris
leucémie L1210 = assay: Therapeutic effect on L1210 leukemia in mice, single intraperitoneal injection 24 h after intraperitoneal tumour inoculation; settings: for Augmentation survie traitées/contrôle x 100 / Survie moyenne en jours des souris traitées ± erreur standard. / % de cellules tumorales tuées par le traitement: single i.p. injection, inoculum 10^5 L1210 cells; for % de cellules tumorales tuées par le traitement: calculated by Skipper method; for Nombre d'animaux guéris: cured = survival more than 45 days after inoculation; for index chimiothérapeutique: leucémie L1210, read from Table VI; for fraction des cellules survivantes N/No après traitement en fonction de la dose (fraction de la dose infra-létale DLo): figure 2, comparison with dérivé 34 (DIE)
Description: Afin de tester l'activité antitumorale des composés décrits plus haut, on a utilisé en premier lieu des leucémies murines P388 et L1210. La leucémie P388 est considérée comme très sensible et permet une première sélection. La leucémie L1210 est plus résistante et plus sélective. Une substance ayant une grande activité sur la leucémie L1210 a une grande chance d'être active en clinique humaine (J.M. VENDITTI, Relevance of transplantable animal tumor systems to the Selection of new agents for clinical trial in pharmacologi- cal basis of cancer chemotherapy. The University of Texas ed. Williams and Wilkins, publ. 1975, Baltimore USA) .
D'autre part, la tumeur expérimentale qu'est la leucémie L1210 de la souris est en effet couramment utilisée pour l'évaluation de tous les composés antitumoraux actuellement mis en oeuvre en thérapeutique humaine, ainsi qu'il est décrit, par exemple par C.C. ZUBROD dans Proc. Nat. Acad. Sci. USA 69, 1972, p 1042-1047. Le système tumoral ainsi constitué expérimentalement permet une évaluation quantitative très précise de l'activité du composé testé, et, par conséquent aussi, une comparaison objective entre les activités respectives de différents composés, par exemple selon les méthodes décrites par R.E. SKIPPER, F.M. SCHABEL Jr. et W.S. WILCOX dans Cancer Chemother. Rep., 35, 1964, p 1-111 et 45, 1965, p 5-28.
(§1) En pratique, on a utilisé des souris ayant reçu par voie intrapéritonéale un inoculum de cellules de leucémie L1210 et ayant été, pour la moitié d'entre elles, soumises 24 heures après ladite inoculation tumorale à une injection intrapéritonéale d'une dose unique de l'un des composés à tester : l'autre moitié des souris a reçu une injection d'un volume identique d'un solvant inactif et servait de série témoin. On a réparti les souris au hasard dans chaque série expérimentale. Une première expérimentation de routine a permis de déterminer la mortalité par toxicité et de fixer ainsi les doses infra-létales.
Conformément à la convention en usage dans ce domaine, on considérait comme guéris les animaux qui survivaient plus de 45 jours après l'inoculation de cellules tumorales.
On a ainsi pu déterminer la mortalité par toxicité sous l'effet d'une injection unique de l'un des composés à différentes doses (doses infra-létales, DL 50 et DL 100) et évaluer le taux de survie du groupe d'animaux auxquels on n'avait injecté qu'une dose infra-létale d'un composé selon l'invention.
On a calculé le taux de survie à partir d'une analyse statistique des résultats expérimentaux, par comparaison avec les résultats obtenus avec la série témoin, selon les méthodes bien connues de Mann-Whitey et de Wilcoxon; le pourcentage de cellules leucémiques tuées par le traitement réalisé était calculé par la méthode décrite par H.E. SKIPPER et coll. dans les articles cités plus haut, en prenant pour base, suivant le cas, soit l'augmentation de la survie moyenne en l'absence de survivants, soit le pourcentage de survivants.
Pour l'évaluation de l'activité thérapeutique des composés selon l'invention, on a exprimé les doses dudit composé en les rapportant à la dose infra-létale […], que l'on a posée égale à 1. Cette dose infra-létale s'est en effet avérée plus facile à déterminer pour les composés de l'invention que la DL 10, dont elle est d'ailleurs très voisine et qui est habituellement prise comme référence pour l'évaluation de l'activité thérapeutique de composés à effet antitumoral (voir H.E. SKIPPER et coll., ouvrages cités).

mélanome B 16 = assay: Survival of mice bearing B 16 melanoma, identical protocol; settings: same doses
Description: as §1
(§2) En outre, ces composés présentent une forte activité sur le mélanome B 16 et la tumeur de Lewis, pour les mêmes doses, le protocole étant identique. A titre d'exemple, sur le mélanome B 16, le dérivé 41 augmente de 15 jours la survie des souris traitées; sur la tumeur de Lewis, l'augmentation de survie induite pour ce même dérivé est de 8 jours avec un survivant.

tumeur de Lewis = assay: Survival of mice bearing Lewis tumour, identical protocol; settings: same doses
Description: as §1, §2

[1] = dose 0.02 of the infra-lethal dose
[2] = dose 0.1 of the infra-lethal dose
[3] = dose 0.2 of the infra-lethal dose
[4] = dose 0.25 of the infra-lethal dose
[5] = dose 0.3 of the infra-lethal dose
[6] = dose 0.4 of the infra-lethal dose
[7] = dose 1/5 of the infra-lethal dose
[8] = dose 0.04 of the infra-lethal dose
[9] = dose 0.8 of the infra-lethal dose

COc1ccc2[nH]c3ccc4cc[n+](CCN5CCC(C6CCN(CC[n+]7ccc8ccc9[nH]c%10ccc(OC)cc%10c9c8c7)CC6)CC5)cc4c3c2c1 [Dérivé 34, Dichlorurede 1'1'-bis 2-(2-méthoxy-10,7-H-pyrido[4,3-c]carbazolium)éthy14,4' bispipéridine]
Augmentation survie traitées/contrôle x 100 (leucémie L1210; [1]): 128 | Survie moyenne en jours des souris traitées ± erreur standard. (leucémie L1210; [1]): 12.2 ± 0.9 jours | % de cellules tumorales tuées par le traitement (leucémie L1210; [1]): 98% | Nombre d'animaux guéris (leucémie L1210; [2]): 1/15 | Augmentation survie traitées/contrôle x 100 (leucémie L1210; [2]): 137 | Survie moyenne en jours des souris traitées ± erreur standard. (leucémie L1210; [2]): 13.6 ± 2.9 jours | % de cellules tumorales tuées par le traitement (leucémie L1210; [2]): 94.8% | Augmentation survie traitées/contrôle x 100 (leucémie L1210; [3]): 144 | Survie moyenne en jours des souris traitées ± erreur standard. (leucémie L1210; [3]): 14.3 ± 2.6 jours | % de cellules tumorales tuées par le traitement (leucémie L1210; [3]): 99.97% | Augmentation survie traitées/contrôle x 100 (leucémie L1210; [4]): 216 | Survie moyenne en jours des souris traitées ± erreur standard. (leucémie L1210; [4]): 18.6 ± 4.5 jours | % de cellules tumorales tuées par le traitement (leucémie L1210; [4]): 99.999% | Augmentation survie traitées/contrôle x 100 (leucémie L1210; [5]): 191 | Survie moyenne en jours des souris traitées ± erreur standard. (leucémie L1210; [5]): 17.6 ± 4.5 jours | % de cellules tumorales tuées par le traitement (leucémie L1210; [5]): 99.999% | Augmentation survie traitées/contrôle x 100 (leucémie L1210; [6]): 182 | Survie moyenne en jours des souris traitées ± erreur standard. (leucémie L1210; [6]): 18.1 ± 4.5 jours | % de cellules tumorales tuées par le traitement (leucémie L1210; [6]): 99.999% | % des cellules leucémiques tuées (leucémie L1210; [7]): 99,97% | index chimiothérapeutique (leucémie L1210): extrêmement élevé

Oc1ccc2[nH]c3ccc4cc[n+](CCN5CCC(C6CCN(CC[n+]7ccc8ccc9[nH]c%10ccc(O)cc%10c9c8c7)CC6)CC5)cc4c3c2c1 [Dérivé 40]
Augmentation survie traitées/contrôle x 100 (leucémie L1210; [1]): 111 | Survie moyenne en jours des souris traitées ± erreur standard. (leucémie L1210; [1]): 9.4 ± 1.2 jours | % de cellules tumorales tuées par le traitement (leucémie L1210; [1]): 94% | Augmentation survie traitées/contrôle x 100 (leucémie L1210; [3]): 153 | Survie moyenne en jours des souris traitées ± erreur standard. (leucémie L1210; [3]): 12.9 ± 1.5 jours | % de cellules tumorales tuées par le traitement (leucémie L1210; [3]): 99.47% | Augmentation survie traitées/contrôle x 100 (leucémie L1210; [6]): 167 | Survie moyenne en jours des souris traitées ± erreur standard. (leucémie L1210; [6]): 13.2 ± 1.9 jours | % de cellules tumorales tuées par le traitement (leucémie L1210; [6]): 99.994% | % des cellules leucémiques tuées (leucémie L1210; [7]): 99,97% | index chimiothérapeutique (leucémie L1210): extrêmement élevé

O=P1(N(CCCl)CCCl)NCCCO1 (stereo not shown) [cyclophosphamide, reference compound]
fraction des cellules survivantes N/No après traitement en fonction de la dose (fraction de la dose infra-létale DLo) (leucémie L1210): ne sont actives qu'à des doses bien supérieures à celles du dérivé 34

O=NN(CCCl)C(=O)NCCCl [bischloréthylnitrosourée (BCNU), bischloréthylnitrosourée, reference compound]
fraction des cellules survivantes N/No après traitement en fonction de la dose (fraction de la dose infra-létale DLo) (leucémie L1210): ne sont actives qu'à des doses bien supérieures à celles du dérivé 34

COc1ccc2c(c1)c1c3c[n+](CCN4CCC(C5CCN(CC[n+]6ccc7ccc8c(c7c6)c6cc(OC)ccc6n8C)CC5)CC4)ccc3ccc1n2C [Dérivé 41, Dichlorurede 1,1' bis 2-(2-méthyl-7-méthoxy-10,7-H-pyrido [4,3-c]carbazolium) éthyl 4,4' bispipéridine]
augmentation de la survie des souris traitées (mélanome B 16): 15 jours | Augmentation survie traitées/contrôle x 100 (leucémie L1210; [8]): 143 | Survie moyenne en jours des souris traitées ± erreur standard. (leucémie L1210; [8]): 11.9 ± 1.2 jours | % de cellules tumorales tuées par le traitement (leucémie L1210; [8]): 99.8% | Nombre d'animaux guéris (leucémie L1210; [6]): 1/15 | Augmentation survie traitées/contrôle x 100 (leucémie L1210; [6]): 140 | Survie moyenne en jours des souris traitées ± erreur standard. (leucémie L1210; [6]): 11.8 ± 0.9 jours | % de cellules tumorales tuées par le traitement (leucémie L1210; [6]): 99.8% | Augmentation survie traitées/contrôle x 100 (leucémie L1210; [9]): 155 | Survie moyenne en jours des souris traitées ± erreur standard. (leucémie L1210; [9]): 12.9 ± 1.9 jours | % de cellules tumorales tuées par le traitement (leucémie L1210; [9]): 99.97% | % des cellules leucémiques tuées (leucémie L1210; dose 1/15 of the infra-lethal dose): 91,8% | index chimiothérapeutique (leucémie L1210): extrêmement élevé | augmentation de survie (tumeur de Lewis): 8 jours | survivant (tumeur de Lewis): un survivant
